We go through 1 molecule from patent US20150150892A1, “METHODS AND PRODUCTS RELATED TO LUNG CANCER” (Massachusetts Institute of Technology, priority 2012, published 2015).

Assay [1] has as its system KP lung cancer cells in NCR nu/nu mice. The assay is described as follows: Subcutaneous tumor model, caliper tumor volume. The settings on record: KP cells s.c. in immunocompromised mice.
Method: 1×10^6 KP lung cancer cells were injected subcutaneously into NCR nu/nu mice. Tumor volume was quantified by caliper measurements. Treatments started when tumors reached −100 mm^3 (set to 1 in tumor volume axis and 0 days in time axis). Arrows indicate Bortezomib (1 mg/kg) or Cisplatin (7 mg/kg) injections. Error bars are s.d (n=4).
To compare the efficacy of bortezomib to that of other lung cancer therapies, we injected KP lung tumor cells s.c. into immunocompromised mice, allowed tumors to form, and then treated the mice with bortezomib.
For assay [2], the system named is Bortezomib-resistant KP cell lines. The settings on record: upon bortezomib treatment; viability 24 hours, colonies 7 days.
Method: (12A) Relative cell viability in cell lines treated with increasing doses of Bortezomib for 24 hours. Cells lines were outgrown from Bortezomib resistant orthotopic tumors (resistant 1&2) or sensitive tumors (sensitive) as in FIG. 6C. Error bars are s.d. (n=3). (12B) Colony formation assay in Bortezomib-resistant cells. 104 cells were plated in 6-well plate and treated with indicated drug concentration. Plates were stained 7 days later with crystal violet solution. Drug-containing medium was refreshed every 4 days.
Cells were split into 96-well plates (5,000 cells per well). After 24 hours, cells were treated with bortezomib, and 24 hours later cell viability was measured by the Cell Titer Aqueous Kit (Promega) in triplicates. Vehicle control-treated cell values were set to 1 (100% viability).
A further assay has as its system K lung tumors. The experiment in a line: CC3 immunohistochemistry in K lung tumors. Format: in vivo, mouse. The settings on record: KrasLSL-G12D/wt mice, all time points assayed. The protocol: FIG. 4: Bortezomib induces apoptosis in KP lung tumors. (4A and 4B) H&E and CC3 immunohistochemistry staining (×200) in vehicle control- and bortezomib-treated KP (4A) and K (4B) lung tumors. (4C and 4D) quantification of CC3-positive cells in bortezomib-treated KP (4C) and K (4D) lung tumors at indicated time points. “0 hour” represents vehicle control-treated tumors. Error bars are SD (n>10 for each time point).
Mice were sacrificed by carbon dioxide asphyxiation. Lungs were inflated with 4% formalin (neutral buffered formalin), fixed overnight, and transferred to 70% ethanol. Lung lobes were embedded in paraffin and sectioned at 4 μm and stained with H&E for tumor pathologic study. For staining with anti-CC3 antibodies (#9661; Cell Signaling), lung tumor sections were dewaxed, rehydrated, and subjected to high-temperature antigen retrieval—10 minutes of boiling in a pressure cooker in 0.01 M citrate buffer, pH 6.0. Slides were stained overnight at 4° in 1:100 primary antibody. A goat anti-rabbit horseradish peroxidase-conjugated secondary antibody (Vector Laboratories) was used at 1:200 dilution, incubated for 1 hour at room temperature, followed by diaminobenzidine staining (Vector Laboratories). The number of positive cells per tumor area was quantified using Bioquant software from >10 tumors in ≧3 mice per group (2).

The test system of assay [3] is NF-κB target genes regulating apoptosis and survival. The experiment in a line: QPCR of NF-κB targets in Bortezomib-resistant KP cell line. Format: cell-based, mouse. The settings on record: 5 nM Bortezomib, 24 hours. The method, then: A representative resistant cell line was treated with control or 5 nM Bortezomib for 24 hours. Gene expression level was measured by QPCR and normalized to control-treated cells (set to 1). Error bars are s.d. (n=3).
RNA was purified using TRIzol (Invitrogen), according to the manufacturer's instructions. One microgram of RNA was reverse transcribed using the High-Capacity cDNA Reverse Transcription Kit (Applied Biosystems). Real-time PCR (quantitative PCR) amplification was performed using Taqman probes (Applied Biosystems). Data were normalized to the Gapdh (mouse) or GAPDH (human) levels.

Assay [4] has as its system luciferase-tagged KP cells transplanted into immunocompetent recipient mice. The experiment in a line: Orthotopic lung tumor model, survival and bioluminescence imaging. It counts as in vivo, mouse. An excerpt: FIG. 6: Imaging bortezomib response and resistance in an orthotopic lung tumor model. (6A) experimental design. Lung cancer cells derived from KP tumors were infected with a retrovirus expressing luciferase and transplanted into immunocompetent recipient mice by tail vein injection. (6B) Kaplan-Meier survival curve of control and bortezomib-treated recipient mice (n=6; P=1.4×10−5). A total of 10,000 cells were transplanted, and treatment started after 35 days. (6C) representative bioluminescence imaging of recipient mice (n=6) treated with vehicle control or bortezomib, as in 6B. D0 refers to the first treatment. Arrows indicate weekly bortezomib regimen.
FIG. 7: The NF-κB inhibitor Bay-117082 leads to lung tumor regression in vivo. (7A) quantitative PCR analysis of NF-κB target gene expression in KP cells treated with 10 μM Bay-117082 for indicated hours. Error bars are SD (n=3). (7B) Bay-117082 treatment leads to lung tumor regression and delays tumor progression in the orthotopic lung tumor model. A total of 50,000 luciferase-tagged KP cells were transplanted into recipient mice (n=6), and treatment was started at 19 days after transplantation (set at D0). Mice were treated with vehicle control or 10 mg/kg Bay-117082 by i.p. injection, and imaged at the indicated time points. Arrows indicate Bay-117082 injections. (7C) Bay-117082 prolongs survival in the KP model (n=6; P=0.008). “i.p. dosing” indicates treatment with 3 doses per week.
At indicated time points, mice were scanned for 15 min under isoflurane anesthesia, using a small animal eXplore Locus microCT (GE Healthcare) at 45-μm resolution, 80 kV, with 450-mA current (47). Images were acquired and processed using GE eXplore software. Bioluminescence imaging was performed as previously described (48). Mice were imaged for 60 seconds, and signals in the lung were quantified using Xenogen software.
To facilitate imaging of the bortezomib treatment response, we adapted a transplantation-based orthotopic lung cancer mouse model (37). As outlined in FIG. 6A, we infected KP cell lines with a retrovirus expressing firefly luciferase. The cells were transplanted into immunocompetent recipient mice by i.v. injection, resulting in the development of in situ lung tumors that could be imaged and quantified by bioluminescence imaging.
To determine whether bortezomib therapy was effective in the orthotopic model, we transplanted 10,000 KP cells into host mice and treated the mice 5 weeks later, either with control or with a weekly 4-dose regimen of bortezomib (37).

Assay [5] relates to KrasLSL-G12D/wt (K) lung tumors. The experiment in a line: MicroCT lung tumor volume in K mice. The settings on record: single 1 mg/kg dose, 20 weeks post infection. It counts as in vivo, mouse. From the text: FIG. 3: Bortezomib induces acute lung tumor regression in KrasLSL-G12D/wt;p53flox/flox (KP) mice, but not in KrasLSL-G12D/wt (K) mice. (3A and 3C) representative microCT images (n=6) of KP (3A) and K (3C) lung tumors prior to pre-treatment (D0) and 4 days (D4) after a single dose of vehicle control or bortezomib. (3 B and 3D) Quantification of tumor volume change (D4 compared with D0) in control- and bortezomib-treated mice. Each bar represents an individual tumor. P<10^−6 in KP mice (3B); P>0.05 in K mice (3D).
The Massachusetts Institute of Technology (Cambridge, Mass.) Institutional Animal Care and Use Committee approved all animal studies and procedures. To initiate lung tumors, cohorts of K or KP mice of 129svJae background were infected with 2.5×10^7 plaque-forming units of Adeno-Cre (University of Iowa) by intranasal inhalation, as described previously (2, 28). Mice were given bortezomib (LC Labs) in PBS [0.5% dimethylsulfoxide (DMSO)] at 1 mg/kg body weight i.v., as indicated. […]
At indicated time points, mice were scanned for 15 min under isoflurane anesthesia, using a small animal eXplore Locus microCT (GE Healthcare) at 45-μm resolution, 80 kV, with 450-mA current (47). […] Mice were imaged for 60 seconds, and signals in the lung were quantified using Xenogen software. […]

Where [6] appears, read: orthotopic model, weekly bortezomib.

Take `CC(C)C[C@H](NC(=O)[C@H](Cc1ccccc1)NC(=O)c1cnccn1)B(O)O` [bortezomib, N-(2-pyrazine) carbonyl-L-phenylalanine-L-leucine boronic acid]: the “tumor volume, short term” value in assay [1] (Bortezomib 1 mg/kg) is recorded as “markedly reduced tumor volumes”. Further, the tumor progression entry in assay [1] (Bortezomib 1 mg/kg or Cisplatin 7 mg/kg) was “diminished tumor progression to a similar extent as cisplatin”. For the same molecule, the “viability and colony formation of resistant cells compared with sensitive cells” value in assay [2] was “higher viability and increased colony formation”. For the same molecule, the “apoptotic cells in K-only tumors” value in the assay on K lung tumors is “did not detect a substantial number of apoptotic cells”. Besides, the “NF-κB target genes regulating apoptosis and survival” value in assay [3] is listed as “robust downregulation”. The average survival in assay [4] (10,000 KP cells transplanted, weekly 4-dose bortezomib from 5 weeks, control 47.0±2.0 days, P=1.4×10^−5) turned out to be 64.0 ± 5.4 days. For the same molecule, in assay [4] (orthotopic model, after first bortezomib treatment), the “bioluminescence tumor signal at day 2 and day 4” value is listed as “marked tumor regression”. In addition, in assay [4] (setting [6]), the “effect of a 4th dose” value is given as “ineffective”; the “lung tumor signal after the 2nd and 3rd treatments” value was “still decreased or stabilized”. Also, the tumor regression result in assay [5] is listed as “did not regress”.
